≈ marks a conversion by molar mass, not a printed value.
Columns and labels:
[1] = biological target: T1, 5-hydroxytryptamine receptor 1A (Homo sapiens) (UniProt P08908); experiment: Biased agonist activity at human recombinant 5-HT1A receptor stably expressed in CHO-K1 cells assessed as increase in ERK1/2 phosphorylation levels incubated for 15 mins by Alphalisa assay relative to serotonin; assay type: cell-based; conditions: filed as agonist
T1 sequence (whole entry): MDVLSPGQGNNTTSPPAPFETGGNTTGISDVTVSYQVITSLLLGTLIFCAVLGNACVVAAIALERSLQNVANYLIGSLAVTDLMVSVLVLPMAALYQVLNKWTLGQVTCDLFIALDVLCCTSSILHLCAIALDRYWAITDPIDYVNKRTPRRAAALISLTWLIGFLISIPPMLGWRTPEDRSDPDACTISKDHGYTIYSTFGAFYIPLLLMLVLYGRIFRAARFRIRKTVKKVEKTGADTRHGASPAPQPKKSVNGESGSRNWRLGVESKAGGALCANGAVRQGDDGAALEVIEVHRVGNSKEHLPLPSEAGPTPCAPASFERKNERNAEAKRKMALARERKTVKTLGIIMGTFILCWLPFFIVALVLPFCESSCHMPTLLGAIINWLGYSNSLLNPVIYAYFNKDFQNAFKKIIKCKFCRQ

[2] = biological target: T1, 5-hydroxytryptamine receptor 1A (Homo sapiens); experiment: Biased agonist activity at human recombinant 5-HT1A receptor stably expressed in CHO-K1 cells assessed as inhibition of forskolin-induced cAMP accumulation after 40 mins by LANCE Ultra cAMP kit-based TR-FRET assay relative to serotonin; assay type: functional, cell-based
[3] = biological target: T1, 5-hydroxytryptamine receptor 1A (Homo sapiens); experiment: Biased agonist activity at Gal4-VP16 transcription factor linked human 5-HT1A receptor expressed in human U2OS cells assessed as stimulation of beta-arrestin recruitment measured after 5 hrs by Tango assay relative to serotonin; assay type: cell-based; conditions: filed as agonist
[4] = biological target: T1, 5-hydroxytryptamine receptor 1A (Homo sapiens); experiment: Biased agonist activity at human recombinant 5-HT1A receptor stably expressed in CHO-K1 cells assessed as increase in calcium mobilization measured at 2 sec intervals for 180 secs by Fluo-4AM dye based fluorescence assay relative to serotonin; assay type: functional, cell-based; conditions: time 180.0 sec
[5] = biological target: T2, Adrenergic receptor alpha-1 (Rattus norvegicus, UniProt P15823+P23944+P43140); experiment: Displacement of [3H]-prazosin from alpha1 adrenergic receptor in rat cortex measured after 30 mins by microbeta2 scintillation counting method; assay type: tissue-based
T2 sequence (P15823 whole entry): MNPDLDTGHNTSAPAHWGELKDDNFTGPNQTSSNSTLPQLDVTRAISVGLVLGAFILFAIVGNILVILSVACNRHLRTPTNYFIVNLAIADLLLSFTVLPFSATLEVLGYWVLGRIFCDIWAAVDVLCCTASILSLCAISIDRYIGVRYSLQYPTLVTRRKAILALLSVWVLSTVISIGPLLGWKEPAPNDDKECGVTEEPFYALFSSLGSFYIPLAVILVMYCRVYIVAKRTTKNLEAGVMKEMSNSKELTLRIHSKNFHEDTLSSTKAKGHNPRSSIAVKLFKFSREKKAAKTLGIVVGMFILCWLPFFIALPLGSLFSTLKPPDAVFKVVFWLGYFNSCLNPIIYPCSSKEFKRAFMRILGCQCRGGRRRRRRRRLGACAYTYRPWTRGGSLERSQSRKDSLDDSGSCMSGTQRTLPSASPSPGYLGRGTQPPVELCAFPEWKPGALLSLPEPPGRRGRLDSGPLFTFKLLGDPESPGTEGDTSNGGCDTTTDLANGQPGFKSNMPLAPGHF
T2 sequence (P23944 whole entry): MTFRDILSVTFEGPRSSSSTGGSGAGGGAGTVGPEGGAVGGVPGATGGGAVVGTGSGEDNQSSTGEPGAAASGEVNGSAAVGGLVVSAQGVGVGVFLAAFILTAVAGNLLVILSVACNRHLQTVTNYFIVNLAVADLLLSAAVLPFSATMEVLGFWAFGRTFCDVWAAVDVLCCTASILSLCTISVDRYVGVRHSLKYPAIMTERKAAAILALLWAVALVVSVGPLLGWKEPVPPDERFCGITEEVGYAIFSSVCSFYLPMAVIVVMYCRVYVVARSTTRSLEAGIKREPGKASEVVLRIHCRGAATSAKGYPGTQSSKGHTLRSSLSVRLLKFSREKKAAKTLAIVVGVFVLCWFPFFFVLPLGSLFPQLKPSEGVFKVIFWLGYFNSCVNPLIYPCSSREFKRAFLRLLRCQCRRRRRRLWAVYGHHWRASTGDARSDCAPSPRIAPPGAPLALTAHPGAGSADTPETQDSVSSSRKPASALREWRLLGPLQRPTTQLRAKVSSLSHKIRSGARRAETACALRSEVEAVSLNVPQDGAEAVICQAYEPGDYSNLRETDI
T2 sequence (P43140 whole entry): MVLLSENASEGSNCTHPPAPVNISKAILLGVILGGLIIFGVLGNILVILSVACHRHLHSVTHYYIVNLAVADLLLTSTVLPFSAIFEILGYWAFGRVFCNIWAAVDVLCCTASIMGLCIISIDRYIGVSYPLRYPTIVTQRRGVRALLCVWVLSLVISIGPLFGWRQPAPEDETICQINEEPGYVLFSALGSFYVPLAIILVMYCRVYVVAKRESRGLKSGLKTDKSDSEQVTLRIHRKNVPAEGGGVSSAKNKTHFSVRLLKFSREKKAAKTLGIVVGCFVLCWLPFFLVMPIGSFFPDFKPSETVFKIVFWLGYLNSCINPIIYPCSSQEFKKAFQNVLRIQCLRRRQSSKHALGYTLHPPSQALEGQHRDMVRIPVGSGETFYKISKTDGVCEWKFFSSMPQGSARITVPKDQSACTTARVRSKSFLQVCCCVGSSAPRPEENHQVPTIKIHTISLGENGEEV

[6] = test system: Rattus norvegicus; experiment: Antidepressant-like activity in Wistar rat assessed as minimum effective dose causing reduction in immobility time administered intraperitoneally with compound 60 mins prior to testing and measured for 5 mins test period by Porsolt-forced swim test; assay type: functional; conditions: ip, 1.083 h, time 65 min, read-out: MED
[7] = test system: Rattus norvegicus; experiment: Antidepressant-like activity in Wistar rat assessed as reduction in immobility time at 10 mg/kg, ip administered 60 mins prior to testing and measured for 5 mins test period by Porsolt-forced swim test; assay type: functional; parameters: scale not given: the % may be the effect or the level left; conditions: time 65 min, 1.083 h
[8] = biological target: D(2) dopamine receptor (Homo sapiens, UniProt P14416); experiment: Displacement of [3H]-methylspiperone from recombinant human D2 receptor stably expressed in CHO-K1 cell membranes measured after 60 mins by microbeta2 scintillation counting method; parameters: species or system Cell membrane
Chain of D(2) dopamine receptor (P14416 whole entry): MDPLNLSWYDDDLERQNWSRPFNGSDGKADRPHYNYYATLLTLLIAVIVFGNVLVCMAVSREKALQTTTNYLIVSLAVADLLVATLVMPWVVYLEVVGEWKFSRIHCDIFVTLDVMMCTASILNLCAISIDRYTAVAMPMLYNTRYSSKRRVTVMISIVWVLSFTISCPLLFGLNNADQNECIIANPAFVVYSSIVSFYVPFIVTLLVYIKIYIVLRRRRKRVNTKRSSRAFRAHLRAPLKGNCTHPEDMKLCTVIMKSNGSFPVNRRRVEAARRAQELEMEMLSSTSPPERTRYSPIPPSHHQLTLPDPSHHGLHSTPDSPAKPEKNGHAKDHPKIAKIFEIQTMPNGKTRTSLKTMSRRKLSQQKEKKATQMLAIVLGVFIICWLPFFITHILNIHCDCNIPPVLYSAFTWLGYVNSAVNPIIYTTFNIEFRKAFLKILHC

[9] = biological target: T3, 5-hydroxytryptamine receptor 1A (Homo sapiens, UniProt P08908); experiment: Displacement of [3H]8-OH-DPAT from recombinant human 5HT1A receptor stably expressed in CHO-K1 cell membranes measured after 60 mins by microbeta2 scintillation counting method; parameters: species or system Cell membrane
T3 sequence (P08908 whole entry): T1 sequence (whole entry)

[10] = Aqueous solubility of compound in pH 7.4 PBS buffer at 200 uM; assay type: physicochemical
[11] = Toxicity in Wistar rat assessed as minimum effective dose causing effect on flat body posture administered subcutaneously with compound and observed after 60 mins post treatment; conditions: in vivo, sc, 1 h
[12] = test system: Rattus norvegicus; experiment: Antidepressant-like activity in Wistar rat assessed as reduction in immobility time at 0.63 mg/kg, sc administered 60 mins prior to testing and measured for 5 mins test period by Porsolt-forced swim test; assay type: functional; parameters: scale not given: the % may be the effect or the level left; conditions: time 65 min, 1.083 h
[13] = test system: Rattus norvegicus; experiment: Antidepressant-like activity in Wistar rat assessed as minimum effective dose causing reduction in immobility time after sc administration with compound 60 mins prior to testing and measured for 5 mins test period by Porsolt-forced swim test; assay type: functional; conditions: 1 h, read-out: MED

Structure (SMILES)	Emax [1]	Emax ([2]; filed as agonist)	Emax [3]	pKi [5]	also measured
O=C(c1ccc(Cl)c(Cl)c1)N1CCC(F)(CNCCOc2ccccn2)CC1	85%	71%	99%	–	Emax ([4]; filed as partial agonist): 58%
O=C(c1ccc(F)c(Cl)c1)N1CCC(F)(CNCCOc2cnccn2)CC1	100%	90%	97%	< 6	Emax ([4]; filed as agonist): 89%
CN(C)CCCN1c2ccccc2CCc2ccccc21 [IMIPRAMINE]	–	–	–	–	minimal effective dose [6]: 10 mg/kg; Activity [7]: 25%
O=C(c1ccc(F)c(Cl)c1)N1CCC(F)(CNCCSc2ccccn2)CC1	84%	76%	102%	–	Emax ([4]; filed as partial agonist): 73%
O=C(c1ccc(Cl)c(Cl)c1)N1CCC(F)(CNCCOc2ccccc2)CC1	–	–	–	–	Ki [8]: > 1000 nM; Ki [9]: 0.0148 nM
COCCc1ccc(OCC(O)CNC(C)C)cc1 (configuration not stated) [METOPROLOL]	–	–	–	–	solubility at 200 µM [10]: 181 µM (≈ 48.3 µg/mL)
O=C(c1ccc(F)c(Cl)c1)N1CCC(F)(CNCCCc2ccccc2)CC1	77%	91%	99%	< 6	Emax ([4]; filed as partial agonist): 74%
O=C(c1ccc(F)c(Cl)c1)N1CCC(F)(CNCCOc2cccnc2)CC1	99%	100%	101%	< 6	Emax ([4]; filed as agonist): 98%
O=C(c1ccc(F)c(Cl)c1)N1CCC(F)(CNCCOc2ccnnc2)CC1	–	–	–	< 6	Ki [8]: > 1000 nM; Ki [9]: 200 nM
O=C(c1ccc(F)c(Cl)c1)N1CCC(F)(CNCCOc2ncccn2)CC1	–	–	–	< 6	–
CCCN(CCC)C1CCc2cccc(O)c2C1 (racemic) [8-OH-DPAT]	93%	–	–	–	Emax ([2]; filed as partial agonist): 63%; MED [11]: 0.63 mg/kg; Activity [12]: 90%; minimal effective dose [13]: 0.16 mg/kg

— ChEMBL document CHEMBL4706479, “Novel Aryloxyethyl Derivatives of 1-(1-Benzoylpiperidin-4-yl)methanamine as the Extracellular Regulated Kinases 1/2 (ERK1/2) Phosphorylation-Preferring Serotonin 5-HT Receptor-Biased Agonists with Robust Antidepressant-like Activity” (J Med Chem, 2019)
